Values after ≈ are worked out from the molar mass of the structure shown.
Tests used:
[1] = Lipophilicity, log P of the compound by HPLC analysis; assay type: physicochemical
[2] = system: Mycobacterium tuberculosis; assay: Antitubercular activity against Mycobacterium tuberculosis H37RV ATCC 27294 assessed as growth inhibition after 3 to 11 days by microdilution method; assay type: functional
[3] = Aqueous solubility of the compound by HPLC analysis; assay type: physicochemical
Staphylococcus aureus [4] = assay: Antibacterial activity against methicillin-resistant Staphylococcus aureus ATCC 33591 assessed as growth inhibition after 18 hrs by broth microdilution method; assay type: functional; settings: ATCC 33591, 18 h
Pseudomonas aeruginosa = assay: Antibacterial activity against Pseudomonas aeruginosa ATCC 27853 assessed as growth inhibition after 18 hrs by broth microdilution method; assay type: functional; settings: ATCC 27853, 18 h
Staphylococcus aureus [5] = assay: Antibacterial activity against methicillin-resistant Staphylococcus aureus ATCC 43300 assessed as growth inhibition after 18 hrs by broth microdilution method; assay type: functional; settings: ATCC 43300, 18 h
Staphylococcus aureus [6] = assay: Antibacterial activity against methicillin-susceptible Staphylococcus aureus CMCC 26003 assessed as growth inhibition after 18 hrs by broth microdilution method; assay type: functional; settings: CMCC 26003, 18 h
Staphylococcus aureus [7] = assay: Antibacterial activity against methicillin-susceptible Staphylococcus aureus ATCC 29213 assessed as growth inhibition after 18 hrs by broth microdilution method; assay type: functional; settings: ATCC 29213, 18 h
Staphylococcus aureus [8] = assay: Antibacterial activity against methicillin-susceptible Staphylococcus aureus ATCC 6538 assessed as growth inhibition after 18 hrs by broth microdilution method; assay type: functional; settings: ATCC 6538, 18 h
Escherichia coli = assay: Antibacterial activity against Escherichia coli ATCC 25922 assessed as growth inhibition after 18 hrs by broth microdilution method; assay type: functional; settings: ATCC 25922, 18 h
[9] = system: Mycolicibacterium smegmatis; assay: Antibacterial activity against Mycobacterium smegmatis assessed as growth inhibition after 18 hrs by broth microdilution method; assay type: functional
Staphylococcus aureus [10] = assay: Antibacterial activity against methicillin-susceptible Staphylococcus aureus ATCC 25923 assessed as growth inhibition after 18 hrs by broth microdilution method; assay type: functional; settings: ATCC 25923, 18 h
[11] = Selectivity index, ratio of IC50 for African green monkey Vero cells to MIC for Mycobacterium tuberculosis H37RV ATCC 27294; assay type: toxicity, cell-based; settings: read-out: Selectivity Index
Vero = assay: Cytotoxicity against African green monkey Vero cells after 48 hrs by MTT assay; assay type: cell-based; settings: Chlorocebus sabaeus

| SMILES | logP [1] | MIC [2] | solubility [3] | MIC99 (Staphylococcus aureus [4]) | MIC99 (Pseudomonas aeruginosa) | MIC99 (Staphylococcus aureus [5]) | MIC99 (Staphylococcus aureus [6]) | MIC99 (Staphylococcus aureus [7]) | MIC99 (Staphylococcus aureus [8]) | MIC99 (Escherichia coli) | MIC99 [9] | MIC99 (Staphylococcus aureus [10]) | selectivity ratio [11] | IC50 (Vero) |
| --- | --- | --- | --- | --- | --- | --- | --- | --- | --- | --- | --- | --- | --- | --- |
| CC(=O)NC[C@H]1CN(c2ccc(OC[C@@H]3CN(c4ccc(N5C[C@H](CNC(C)=O)OC5=O)cc4F)C(=O)O3)c(F)c2)C(=O)O1 | 0.43 | 16 µg/mL (≈ 25.9 µM) | 333 µM (≈ 206 µg/mL) | – | – | – | – | – | – | – | – | – | – | – |
| CC(=O)NC[C@H]1CN(c2ccc(OC[C@H](O)CNc3cccnc3)c(F)c2)C(=O)O1 | -0.18 | – | 10100 µM (≈ 4240 µg/mL) | 32 µg/mL (≈ 76.5 µM) | > 32 µg/mL | 32 µg/mL (≈ 76.5 µM) | 32 µg/mL (≈ 76.5 µM) | 32 µg/mL (≈ 76.5 µM) | 32 µg/mL (≈ 76.5 µM) | > 32 µg/mL | > 64 µg/mL | 32 µg/mL (≈ 76.5 µM) | – | – |
| CC(=O)NC[C@H]1CN(c2ccc(OC[C@H](O)CNC3CC3)c(F)c2)C(=O)O1 | -0.1 | – | 2200 µM (≈ 840 µg/mL) | > 32 µg/mL | > 32 µg/mL | > 32 µg/mL | > 32 µg/mL | > 32 µg/mL | > 32 µg/mL | > 32 µg/mL | > 64 µg/mL | > 32 µg/mL | – | – |
| CC(=O)NC[C@H]1CN(c2ccc(OC[C@@H](O)CNc3ccncc3)c(F)c2)C(=O)O1 | -0.04 | – | 17700 µM (≈ 7420 µg/mL) | > 32 µg/mL | > 32 µg/mL | > 32 µg/mL | > 32 µg/mL | > 32 µg/mL | > 32 µg/mL | > 32 µg/mL | > 64 µg/mL | > 32 µg/mL | – | – |
| CC(=O)NC[C@H]1CN(c2ccc(OC[C@@H](O)CNC3CC3)c(F)c2)C(=O)O1 | 0.02 | – | 96000 µM (≈ 36600 µg/mL) | > 32 µg/mL | > 32 µg/mL | > 32 µg/mL | > 32 µg/mL | > 32 µg/mL | > 32 µg/mL | > 32 µg/mL | 32 µg/mL (≈ 83.9 µM) | > 32 µg/mL | – | – |
| CC(=O)NC[C@H]1CN(c2ccc(OC[C@H]3CN(c4ccccc4)C(=O)O3)c(F)c2)C(=O)O1 | 1.86 | 0.25 µg/mL (≈ 0.564 µM) | 164 µM (≈ 72.7 µg/mL) | 16 µg/mL (≈ 36.1 µM) | > 32 µg/mL | 8 µg/mL (≈ 18 µM) | 4 µg/mL (≈ 9.02 µM) | 8 µg/mL (≈ 18 µM) | 4 µg/mL (≈ 9.02 µM) | > 32 µg/mL | 32 µg/mL (≈ 72.2 µM) | 8 µg/mL (≈ 18 µM) | 254 | 63.6 µg/mL (≈ 143 µM) |
| CC(=O)NC[C@H]1CN(c2ccc(OC[C@@H](O)CNCCC(C)C)c(F)c2)C(=O)O1 | 1.17 | – | 385 µM (≈ 158 µg/mL) | > 32 µg/mL | > 32 µg/mL | > 32 µg/mL | > 32 µg/mL | > 32 µg/mL | > 32 µg/mL | > 32 µg/mL | > 64 µg/mL | > 32 µg/mL | – | – |
| COc1ccc(NC[C@@H](O)COc2ccc(N3C[C@H](CNC(C)=O)OC3=O)cc2F)cc1 | 1.15 | – | 1.3 µM (≈ 0.582 µg/mL) | 16 µg/mL (≈ 35.8 µM) | > 32 µg/mL | 16 µg/mL (≈ 35.8 µM) | 8 µg/mL (≈ 17.9 µM) | 16 µg/mL (≈ 35.8 µM) | 8 µg/mL (≈ 17.9 µM) | > 32 µg/mL | 64 µg/mL (≈ 143 µM) | 16 µg/mL (≈ 35.8 µM) | – | – |
| CC(=O)NC[C@H]1CN(c2ccc(OC[C@@H](O)CNc3ccccn3)c(F)c2)C(=O)O1 | 1.37 | – | 22200 µM (≈ 9290 µg/mL) | > 32 µg/mL | > 32 µg/mL | > 32 µg/mL | > 32 µg/mL | > 32 µg/mL | > 32 µg/mL | > 32 µg/mL | > 64 µg/mL | > 32 µg/mL | – | – |
| COc1ccc(N2C[C@@H](COc3ccc(N4C[C@H](CNC(C)=O)OC4=O)cc3F)OC2=O)cc1 | 1.91 | 0.125 µg/mL (≈ 0.264 µM) | 132 µM (≈ 62.5 µg/mL) | 16 µg/mL (≈ 33.8 µM) | > 32 µg/mL | 16 µg/mL (≈ 33.8 µM) | 8 µg/mL (≈ 16.9 µM) | 16 µg/mL (≈ 33.8 µM) | 8 µg/mL (≈ 16.9 µM) | > 32 µg/mL | > 64 µg/mL | 16 µg/mL (≈ 33.8 µM) | 152 | 19.1 µg/mL (≈ 40.3 µM) |
| CC(=O)NC[C@H]1CN(c2ccc(OC[C@H](O)CNCCC(C)C)c(F)c2)C(=O)O1 | 1.19 | – | 7280 µM (≈ 2990 µg/mL) | > 32 µg/mL | > 32 µg/mL | > 32 µg/mL | > 32 µg/mL | > 32 µg/mL | > 32 µg/mL | > 32 µg/mL | > 64 µg/mL | > 32 µg/mL | – | – |
| CC(=O)NC[C@H]1CN(c2ccc(OC[C@@H](O)CNc3ccccc3)c(F)c2)C(=O)O1 | 1.42 | 8 µg/mL (≈ 19.2 µM) | 124 µM (≈ 51.8 µg/mL) | 8 µg/mL (≈ 19.2 µM) | > 32 µg/mL | 4 µg/mL (≈ 9.58 µM) | 4 µg/mL (≈ 9.58 µM) | 8 µg/mL (≈ 19.2 µM) | 4 µg/mL (≈ 9.58 µM) | > 32 µg/mL | > 64 µg/mL | 8 µg/mL (≈ 19.2 µM) | – | – |
| CC(=O)NC[C@H]1CN(c2ccc(NC[C@H](O)COc3ccc(N4C[C@H](CNC(C)=O)OC4=O)cc3F)c(F)c2)C(=O)O1 | 0.59 | 32 µg/mL (≈ 54.1 µM) | 81 µM (≈ 47.9 µg/mL) | – | – | – | – | – | – | – | – | – | – | – |

Reference: ChEMBL document CHEMBL3124787, “Discovery of novel bis-oxazolidinone compounds as potential potent and selective antitubercular agents” (Bioorg Med Chem Lett, 2014)
